Test results taken from US20230146455A1, “TREATMENT OF INFLAMMATORY DISEASES WITH PEPTIDES AND PHARMACEUTICAL COMPOSITIONS” (Yuyu Pharma, Inc., priority 2020, published 2023).
Values joined by “and” are separate entries in the source; they are usually repeats but may differ in a detail not shown here. Equal entries are not always repeated. “Also recorded” adds a separate entry of the source. Where a SMILES comes first, the peptide text is derived from it. [ ]: non-standard residue; d: D form. Hyp = O=C(O)[C@@H]1C[C@@H](O)CN1

Test system: human PBMCs
Experiment: PBMC cell counts (total, live, viability; trypan blue, Countess) with and without LPS and test articles (Example 9)
Type: cell-based
Experimental: Treatment Human PBMCs were pretreated with YY-101, YDE-011 and YDE-043 or reference compound; Xiidra® at various concentration (ranging from 1 nM to 100 uM) for 2 h before stimulation. An equal volume of 0.5% DMSO was used as a vehicle control. Then, the cells were treated with LPS at 5 ug/ml. The supernatants from treated cells were harvested at 24 h and placed in a 96 well for Luminex cytokine & chemokine profiling using a Luminex 200 multiplex assay (Luminex; R&D system, USA).
The main study arm with triplicate wells per group in a 24-well plate: • 1. Blank • 2. PBMC: 0.5% DMSO • 3. PBMC+LPS (5 ug/ml) • 4. PBMC+YY-101 100 uM • 5. PBMC+YY-101 10 uM • 6. PBMC+YY-101 1 uM • 7. PBMC+YY-101 0.1 uM • 8. PBMC+YY-101 0.01 uM • 9. PBMC+LPS (5 ug/ml)+Xiidra®100 uM • 10. PBMC+LPS (5 ug/ml)+Xiidra® 10 uM • 11. PBMC+LPS (5 ug/ml)+Xiidra® 1 uM • 12. PBMC+LPS (5 ug/ml)+Xiidra®0.1 uM • 13. PBMC+LPS (5 ug/ml)+Xiidra®0.01 uM • 14. PBMC+LPS (5 ug/ml)+Xiidra®0.001 uM • 15. PBMC+LPS (5 ug/ml)+YY-101 100 uM • 16. PBMC+LPS (5 ug/ml)+YY-101 10 uM • 17. PBMC+LPS (5 ug/ml)+YY-101 1 uM • 18. PBMC+LPS (5 ug/ml)+YY-101 0.1 uM • 19. PBMC+LPS (5 ug/ml)+YY-101 0.01 uM • 20. PBMC+LPS (5 ug/ml)+YY-101 0.001 uM • 21. PBMC+LPS (5 ug/ml)+YDE-011 100 uM • 22. PBMC+LPS (5 ug/ml)+YDE-011 10 uM • 23. PBMC+LPS (5 ug/ml)+YDE-011 1 uM • 24. PBMC+LPS (5 ug/ml)+YDE-011 0.1 uM • 25. PBMC+LPS (5 ug/ml)+YDE-011 0.01 uM • 26. PBMC+LPS (5 ug/ml)+YDE-011 0.001 uM • 27. PBMC+LPS (5 ug/ml)+YDE-043 100 uM • 28. PBMC+LPS (5 ug/ml)+YDE-043 10 uM • 29. PBMC+LPS (5 ug/ml)+YDE-043 1 uM • 30. PBMC+LPS (5 ug/ml)+YDE-043 0.1 uM • 31. PBMC+LPS (5 ug/ml)+YDE-043 0.01 uM • 32. PBMC+LPS (5 ug/ml)+YDE-043 0.001 uM
The number of PBMCs was measured after 24 hr of treatment. The culture both and trypan blue were diluted 1:1 and 10 ul was added to Countess cell counting chamber (Thermo fisher, USA). The number of PBMCs was measured using a Countess automated cell counter (Thermo fisher, USA).

[1] = PBMC + LPS(5 ug/ml), test article 100 uM, Mean
[2] = PBMC + LPS(5 ug/ml), test article 100 uM, single replicates
[3] = PBMC + compound 0.01 uM, no LPS, 24 hr
[4] = PBMC + compound 0.1 uM, no LPS, 24 hr
[5] = PBMC + compound 1 uM, no LPS, 24 hr
[6] = PBMC + compound 10 uM, no LPS, 24 hr
[7] = PBMC + compound 100 uM, no LPS, 24 hr
[8] = PBMC + test article 0.01 uM, no LPS, Mean
[9] = PBMC + test article 0.01 uM, no LPS, single replicates
[10] = PBMC + test article 0.1 uM, no LPS, Mean
[11] = PBMC + test article 0.1 uM, no LPS, single replicates
[12] = PBMC + test article 1 uM, no LPS, Mean
[13] = PBMC + test article 1 uM, no LPS, single replicates
[14] = PBMC + test article 10 uM, no LPS, Mean
[15] = PBMC + test article 10 uM, no LPS, single replicates
[16] = PBMC + test article 100 uM, no LPS, Mean
[17] = PBMC + test article 100 uM, no LPS, single replicates
[18] = PBMC without LPS, test article 0.01 uM, Mean
[19] = PBMC without LPS, test article 0.01 uM, single replicates
[20] = PBMC without LPS, test article 0.1 uM, Mean
[21] = PBMC without LPS, test article 0.1 uM, single replicates
[22] = PBMC without LPS, test article 1 uM, Mean
[23] = PBMC without LPS, test article 1 uM, single replicates
[24] = PBMC without LPS, test article 10 uM, Mean
[25] = PBMC without LPS, test article 10 uM, single replicates
[26] = PBMC without LPS, test article 100 uM, Mean
[27] = PBMC without LPS, test article 100 uM, single replicates

CC(C)C[C@H](NC(=O)CNC(=O)[C@H](CC(=O)O)NC(=O)[C@H](CCC(N)=O)NC(=O)CNC(=O)[C@@H]1C[C@@H](O)CN1)C(=O)N[C@@H](C)C(=O)NCC(=O)N1CCC[C@H]1C(=O)N[C@@H](CCCCN)C(=O)O [YY-101] (H-[Hyp]GQDGLAGPK-OH; N-terminus and C-terminus assumed)
Live cell [1]: 5.8 10^5/ml
Total cell count [1]: 7.8 10^5/ml
Live cell [2]: 6.3 10^5/ml and 6.2 10^5/ml and 5.0 10^5/ml
Total cell count [2]: 8.7 10^5/ml and 8.8 10^5/ml and 5.8 10^5/ml
Viability [2]: 73.0% and 70.0% and 87.0%
Live cell [3]: 5.0 ± 0.2 10^5/ml
Total cell [3]: 5.9 ± 0.4 10^5/ml
Live cell [4]: 5.1 ± 0.2 10^5/ml
Total cell [4]: 6.1 ± 0.8 10^5/ml
Live cell [5]: 5.5 ± 0.0 10^5/ml
Total cell [5]: 6.1 ± 0.2 10^5/ml
Live cell [6]: 6.3 ± 0.2 10^5/ml
Total cell [6]: 7.4 ± 0.3 10^5/ml
Live cell [7]: 6.7 ± 0.3 10^5/ml
Total cell [7]: 7.8 ± 0.5 10^5/ml
Live cell [8]: 5.0 10^5/ml
Live cell (10^5/ml) [8]: 5.0 10^5/ml
Live cell, Mean [8]: 5.0 10^5/ml
Live cell (PBMC + test article 0.01 uM, no LPS, individual replicates (1st, 2nd)): 5.2 10^5/ml and 4.8 10^5/ml
Live cell [9]: 5.2 10^5/ml and 4.8 10^5/ml
Live cell (10^5/ml) [9]: 5.2 10^5/ml and 4.8 10^5/ml
Live cell (PBMC + test article 0.01 uM, no LPS, single replicates (1st, 2nd)): 5.2 10^5/ml and 4.8 10^5/ml
Live cell [10]: 5.1 10^5/ml
Live cell (10^5/ml) [10]: 5.1 10^5/ml
Live cell, Mean [10]: 5.1 10^5/ml
Live cell (PBMC + test article 0.1 uM, no LPS, individual replicates (1st, 2nd)): 4.4 10^5/ml and 5.8 10^5/ml
Live cell [11]: 4.4 10^5/ml and 5.8 10^5/ml
Live cell (10^5/ml) [11]: 4.4 10^5/ml and 5.8 10^5/ml
Live cell (PBMC + test article 0.1 uM, no LPS, single replicates (1st, 2nd)): 4.4 10^5/ml and 5.8 10^5/ml
Live cell [12]: 5.5 10^5/ml
Live cell (10^5/ml) [12]: 5.5 10^5/ml
Live cell, Mean [12]: 5.5 10^5/ml
Live cell (PBMC + test article 1 uM, no LPS, individual replicates (1st, 2nd)): 5.5 10^5/ml
Live cell [13]: 5.5 10^5/ml
Live cell (10^5/ml) [13]: 5.5 10^5/ml
Live cell (PBMC + test article 1 uM, no LPS, single replicates (1st, 2nd)): 5.5 10^5/ml
Live cell [14]: 6.3 10^5/ml
Live cell (10^5/ml) [14]: 6.3 10^5/ml
Live cell, Mean [14]: 6.3 10^5/ml
Live cell (PBMC + test article 10 uM, no LPS, individual replicates (1st, 2nd)): 6.4 10^5/ml and 6.1 10^5/ml
Live cell [15]: 6.4 10^5/ml and 6.1 10^5/ml
Live cell (10^5/ml) [15]: 6.4 10^5/ml and 6.1 10^5/ml
Live cell (PBMC + test article 10 uM, no LPS, single replicates (1st, 2nd)): 6.4 10^5/ml and 6.1 10^5/ml
Live cell [16]: 6.7 10^5/ml
Live cell (10^5/ml) [16]: 6.7 10^5/ml
Live cell, Mean [16]: 6.7 10^5/ml
Live cell (PBMC + test article 100 uM, no LPS, individual replicates (1st, 2nd)): 6.4 10^5/ml and 7.0 10^5/ml
Live cell [17]: 6.4 10^5/ml and 7.0 10^5/ml
Live cell (10^5/ml) [17]: 6.4 10^5/ml and 7.0 10^5/ml
Live cell (PBMC + test article 100 uM, no LPS, single replicates (1st, 2nd)): 6.4 10^5/ml and 7.0 10^5/ml
Live cell (PBMC without LPS, 0.01 uM, Mean): 5.0 10^5/ml
Live cell (PBMC without LPS, 0.01 uM, single replicates): 5.2 10^5/ml and 4.8 10^5/ml
Live cell (PBMC without LPS, 0.1 uM, Mean): 5.1 10^5/ml
Live cell (PBMC without LPS, 0.1 uM, single replicates): 4.4 10^5/ml and 5.8 10^5/ml
Live cell (PBMC without LPS, 1 uM, Mean): 5.5 10^5/ml
Live cell (PBMC without LPS, 1 uM, single replicates): 5.5 10^5/ml
Live cell (PBMC without LPS, 10 uM, Mean): 6.3 10^5/ml
Live cell (PBMC without LPS, 10 uM, single replicates): 6.4 10^5/ml and 6.1 10^5/ml
Live cell (PBMC without LPS, 100 uM, Mean): 6.7 10^5/ml
Live cell (PBMC without LPS, 100 uM, single replicates): 6.4 10^5/ml and 7.0 10^5/ml
Live cell [18]: 5.0 10^5/ml
Total cell count [18]: 5.9 10^5/ml
Live cell [19]: 5.2 10^5/ml and 4.8 10^5/ml
Total cell count [19]: 6.3 10^5/ml and 5.5 10^5/ml
Viability [19]: 83.0% and 87.0%
Live cell [20]: 5.1 10^5/ml
Total cell count [20]: 6.1 10^5/ml
Viability [20]: 84.0%
Live cell [21]: 4.4 10^5/ml and 5.8 10^5/ml
Total cell count [21]: 5.2 10^5/ml and 6.9 10^5/ml
Viability [21]: 84.0%
Live cell [22]: 5.5 10^5/ml
Total cell count [22]: 6.1 10^5/ml
Live cell [23]: 5.5 10^5/ml
Total cell count [23]: 5.9 10^5/ml and 6.3 10^5/ml
Viability [23]: 92.0% and 87.0%
Live cell [24]: 6.3 10^5/ml
Total cell count [24]: 7.4 10^5/ml
Live cell [25]: 6.4 10^5/ml and 6.1 10^5/ml
Total cell count [25]: 7.6 10^5/ml and 7.1 10^5/ml
Viability [25]: 85.0% and 87.0%
Live cell [26]: 6.7 10^5/ml
Total cell count [26]: 7.8 10^5/ml
Live cell [27]: 6.4 10^5/ml and 7.0 10^5/ml
Total cell count [27]: 7.3 10^5/ml and 8.2 10^5/ml
Viability [27]: 88.0% and 85.0%
viability / total number of PBMCs (in words) (up to 100 μM): didn't affect the basal levels of most of cytokine/chemokine production or the viability of hPBMCs; also recorded: didn't affect any viability or the total number of PBMCs
which treatments consistently affected the total and live number of PBMCs or the percent viability (in words) (up to 100 μM, 24-hour treatment): none of
